Reference: patent publication US20140106387A1, “METHOD FOR CONTROLLING NAD(P)/NAD(P)H RATIO BY OXIDOREDUCTASE” (MD BIOALPHA CO., LTD., priority 2006, published 2014)

System: HEK293 cells
Test: intracellular NADH / NAD(P)H concentration in HEK293 cells
Type: cell-based, human
Conditions: for intracellular NADH concentration: 2 hours
Procedure: 2) Determination of Intracellular NAD(P)H Using a Water-Soluble Tetrazolium Salt-8 (WST-8) in Living Cells:
A water-soluble tetrazolium salt was used to monitor the amount of NAD(P)H through its reduction to a yellow colored formazan dye. The total amount of NAD(P)H within viable cells in the medium was determined periodically by a spectrophotometer. Cells were seeded in 96-well plates (2×10^4 cells/well) and were cultured in 100 μl of a medium containing fetal bovine serum (FBS) and antibiotics for 24 hours. Immediately after treatment of the cells with a candidate compound (e.g., pyrano-1,2-naphthoquinone) at indicated concentrations and a 1/10 volume of a CCK-8 solution (Dojindo Molecular Technology), absorbance measurements were carried out using a spectrophotometer. The CCK-8 solution consisted of a water-soluble 2-(2-methoxy-4-nitrophenyl)-3-(4-nitrophenyl)-5-(2,4-disulfophenyl)-2H-tetrazolium monosodium salt (WST-8, 5 mM) and 1-methoxy-5-methylphenazinium methylsulfate (1-methoxy PMS, 0.2 mM) as an electron mediator. WST-8 produced a water-soluble yellow colored formazan dye through its bioreduction either in the presence of an electron carrier, 1-methoxy PMS and NAD(P)H or directly by NAD(P)H. Therefore, the reduction in tetrazolium salts mostly depends on the amount of intracellular NAD(P)H. The amount of formazan dye produced by the living cells in the medium was determined periodically at a wavelength of 450 nm (reference filter. 650 nm) by a spectrophotometer and compared to the values of control. In addition, a medium blank was prepared with only medium and physiological saline.
In order to monitor monochromatic fluorescence (350 nm), light was illuminated using a 75 W xenon arc lamp directed via a 10 Hz chopper wheel; specific fluorescence intensity was measured at a wavelength of 405±15 nm and 460±10 nm.
Specifically, the NQO1 activity and changes in the intracellular NAD(P)H fluorescence concentration in the presence/absence of NQO1 activity were measured in HepG2, HEK293 and pSG5 HA-NQO1 or pSG5 HA NQO1 C609T-inserted HEK293 cells.

CC1(C)CCC2=C(O1)c1ccccc1C(=O)C2=O [βL, 2,2-Dimethyl-3,4-dihydro-2H-benzo[h]chromene-5,6-dione]
intracellular NADH concentration (HEK293 cells after insertion of an NQO1 gene): concentration-dependent decrease of NADH | intracellular NADH concentration (HEK293 cells having no NQO1 activity): no change in an NADH concentration | NAD(P)H oxidation (HEK293 cells with insertion of a wild-type NQO1 gene): βL-facilitated NAD(P)H oxidation | NAD(P)H oxidation (HEK293 cells with insertion of catalytically inactive NQO1C609T gene): no oxidation of NAD(P)H | NAD(P)H oxidation (control HEK293 cells without the NQO1 activity): no such changes
